Columns and labels:
[1] = in vitro; read-out: dissociation constant (Kd) for Ca2+; cited from earlier work
DmOctβ1 receptor = molecular target: T1, DmOctβ1 receptor (Drosophila melanogaster, UniProt Q9VCZ3); assay: Stopped-flow flash photolysis of caged octopamine in Fluo-4-loaded flpTM-DmOctβ1 cells; type: cell-based; details: for response time after UV-flash: 10 µM caged compound, 50 ms flash, 100 µM IBMX
T1 construct: expressed in transfected cells; host or cells: flpTM cells (HEK293 flpIn, Invitrogen #750-07, carrying the CNGA2 variant)
T1 sequence (Q9VCZ3 1-508): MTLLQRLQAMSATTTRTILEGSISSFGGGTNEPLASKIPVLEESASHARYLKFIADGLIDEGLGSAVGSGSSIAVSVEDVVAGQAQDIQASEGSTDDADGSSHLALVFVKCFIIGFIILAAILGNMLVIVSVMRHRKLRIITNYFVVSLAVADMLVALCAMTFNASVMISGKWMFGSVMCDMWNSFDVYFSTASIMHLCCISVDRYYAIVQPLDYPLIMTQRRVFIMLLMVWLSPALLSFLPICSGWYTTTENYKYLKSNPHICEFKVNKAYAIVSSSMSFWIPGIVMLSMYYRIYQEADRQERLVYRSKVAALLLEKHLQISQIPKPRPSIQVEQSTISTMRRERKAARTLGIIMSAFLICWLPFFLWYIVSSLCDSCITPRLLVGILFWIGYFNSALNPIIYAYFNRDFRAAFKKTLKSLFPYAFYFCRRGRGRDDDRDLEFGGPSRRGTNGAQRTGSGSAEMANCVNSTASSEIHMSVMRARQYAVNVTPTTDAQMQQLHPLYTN
Description: Neutral density filters that regulate the transmission of light (5%, 25%, 50%, 80%, 100%) were installed, allowing application of different light intensities.
In the previous stopped-flow experiments, we initiated the DmOctβ1 receptor-activated reaction cascade by mixing cells with increasing concentrations of octopamine. Now, we used a similar strategy but substituted the biogenic amine for a constant concentration of octopamine fused to a coumarin-based cage group ({8-[bis(carboxymethyl)aminomethyl]-6-bromo-7-hydroxycoumarin-4-yl}methoxycarbon-yl; BBHCMOC-octopamine) from which the biologically active octopamine was released by light flashes. The Fluo-4-loaded flpTM-DmOctβ1 cells were mixed with a final concentration of 10 µM BBHCMOC-octopamine in the cuvette of the stopped-flow apparatus. After 2 s, a UV-flash was triggered for 50 ms and the fluorescence intensities were recorded. The time when triggering the light flash was defined as time point t = 0. Different light intensities were successively applied (5%, 25%, 50%, 80%, 100% intensity). To avoid fluctuations in the [cAMP]i due to cell-endogenous phosphodiesterase activity, the experiments were performed in the presence of 100 µM IBMX. Figure 7 summarizes the results that were obtained with BBHCMOC-octopamine.
For the photolysis of the caged compounds with ultraviolet (UV)-light, a Xe-flash lamp (JML-C2; Rapp Opto Electronics, Wedel, Germany) was coupled to the cuvette via an UV-light permeable light guide (Schott). A UV-2 interference filter was placed between the Xe-flash lamp and light guide to select for the UV-light needed for the photolysis of the caged compounds. Additionally, it prevents the photomultiplier from being hit by light that is able to pass the emission filter. […] To maximize the detection of the emission light, a test solution containing 50 nM of fluorescein in ES was added to the cuvette and the light guide was fixed to the Xe/Hg-lamp at a position where the photomultiplier detected maximal intensity.

CNG channel (A2 homomer) = details: read-out: EC50 for opening the CNG channel, electrophysiological experiments, ref Ludwig et al., 1990; cited from earlier work

## Cc1ccc(N(CC(=O)O)CC(=O)O)c(OCCOc2cc(-c3c4cc(F)c(=O)cc-4oc4cc(O)c(F)cc34)ccc2N(CC(=O)O)CC(=O)O)c1 [Fluo-4]
[1]
  Kd: 345 nM

## O=C(O)CN(CC(=O)O)Cc1c(O)c(Br)cc2c(COC(=O)NCC(O)c3ccc(O)cc3)cc(=O)oc12 (centres unmarked) [BBHCMOC-octopamine]
DmOctβ1 receptor; 5% light intensity
  response time after UV-flash: about 16 s
DmOctβ1 receptor; 100% light intensity
  response time after UV-flash: 6 s and ≈ 6 s
DmOctβ1 receptor; from 10 µM BBHCMOC-octopamine, based on quantum yield
  octopamine released by photolysis: approximately 1 µM

## Nc1ncnc2c1ncn2[C@@H]1O[C@@H]2COP(=O)(O)O[C@H]2[C@H]1O [cAMP, cyclic adenosine monophosphate]
CNG channel (A2 homomer)
  EC50: ~2000 nM

Source: PMC9369311, “Examination of Intracellular GPCR-Mediated Signaling with High Temporal Resolution” (International Journal of Molecular Sciences, 2022)
